Laboratory results published in patent publication US9718771B2, “Aniline derivative, pharmaceutical composition containing same, and use thereof” (Kissei Pharmaceutical Co., Ltd., priority 2014, dated 2017).

Key:
human S1P1 (EDG-1) = human S1P1 (EDG-1) (Homo sapiens (Human), UniProt P21453); experiment: Confirmation test of antagonistic activity for human S1P1 receptor (35S-GTP binding, cell membranes); assay type: biochemical; details: inhibition of 35S-GTP binding induced by S1P1 receptor selective agonist; HEK293 membranes expressing human S1P1
Description: Confirmation Test of Antagonistic Activity for Human S1P1 Receptor
Test compounds were tested by reduction of functional binding activity of ^35S-GTP (guanosine 5′-O-[gamma-thio] triphosphate, PerkinElmer) to G protein using cell membranes expressing human S1P1 (EDG-1). S1P1-pcDNA3.1/V5-His-Topo vector was prepared by inserting cDNA (NM_001400) encoding human S1P1 into the expression vector, pcDNA3.1/V5-His-Topo (registered trademark) (Invitrogen). Next, the above S1P1-pcDNA3.1 vector was transfected into HEK293 cells by Lipofectamine2000 (registered trademark) (Invitrogen). The transfected cells were incubated with D-MEM liquid medium each containing 10% FBS (Fetal bovine serum), 100 U/mL penicillin, 100 μg/mL streptomycin and 1 mg/mL Geneticin (registered trademark) (Invitrogen) in an incubator under the condition of 5% CO2 at 37° C. and Geneticin (registered mark)-resistant cell line stably expressing S1P1 were obtained. The obtained stably S1P1-expressing cells were incubated with D-MEM liquid medium each containing 10% FBS and 0.5 mg/mL Geneticin (registered trademark) in an incubator under the condition of 5% CO2 at 37° C. The cells grown to confluence were harvested by a buffer solution containing 50 mM Tris, 2 mM EDTA (ethylmediaminetetraacetic acid) and 125 mM sodium chloride, and centrifuged at 1880×g, 4° C. for 10 minutes. After a supernatant was removed, a cell pellet was resuspended by the same buffer solution. For making cell membranes fragile, this cell suspension was frozen at −80° C. and then thawed. The cells were centrifuged at 1880×g, 4° C. for 10 minutes, and a supernatant was removed. The cell pellet was suspended by adding the same buffer solution and a fracture solution (10 mM sodium bicarbonate and 5 mM EDTA, pH 7.5) at a ratio of 2:1. The cells were fractured by subjecting the cell suspension to ultrasonication, and a cell membrane fraction was isolated by centrifugation at 1880×g, 4° C. for 10 minutes and ultracentrifugation of the supernatant at 80000×g, 4° C. for 30 minutes. A pellet of the cell membrane fraction was suspended by the fracture solution containing protease inhibitor cocktail (Roche) and stored at −80° C. until use. A protein concentration of the cell membrane fraction was determined using BCA Protein Assay Kit (Pierce) in accordance with an attached protocol.
Inhibitory activity evaluation was performed by multi-screen (registered trademark) HTS 96-well plate (Millipore) using the cell membrane fraction stably expressing S1P1 obtained by the above operation. 25 μL of assay solution (50 mM Tris, 100 mM sodium chloride, 5 mM magnesium chloride, 1 mM EDTA, 1 mM DTT (dithiothreitol), 10 μM GDP (guanosine diphosphate) and 0.5% BSA (bovine serum albumin), pH 7.4), 25 μL of test compounds solution diluted by assay solution and 25 μL of the membrane fraction (0.2 μg protein/μL) were added to each well, and the mixture was gently shaken at room temperature: for 30 minutes. Then, 25 μL of ^35S-GTP, and 25 μL of 50 nM S1P1 receptor selective agonist (1-[4-(4-phenyl-5-trifluoromethylthiophen-2-ylmethoxy)benzyl]azetidine-3-carboxylic acid, “J. Med. Chem.”, 2004, vol. 47, pp. 6662-6665, compound 18) were added to each well, respectively, and it was reacted at room temperature for 60 minutes. After the reaction, a reaction solution of each well was suction-filtered. After suction filtration, ice-colded wash solution (50 mM Tris, 100 mM sodium chloride, […] and 1 mM EDTA, pH 7.4) was added to each well, and moreover filters were washed by suction filtration. This wash procedure was performed three times. A bottom of the plate containing the filters was dried at 60° C. After drying, 30 μL of MicroScinti-40 (PerkinElmer) was added to each well, and the radioactivity adsorbed on the filter was determined by TopCount NXT (registered trademark) (PerkinElmer) after shaking for 30 minutes at room temperature. […]

blood lymphocytes = experiment: Confirmation test for reduction effects on the number of lymphocytes; assay type: in vivo, Male Sprague-Dawley rats; details: rat, oral; for Number of lymphocytes (% of Vehicle) After 6 hours: 6 hours after administration; for Number of lymphocytes (% of Vehicle) After 24 hours: 24 hours after administration; for Number of lymphocytes (% of Vehicle) After 48 hours: 48 hours after administration
Description: Confirmation Test for Reduction Effects on the Number of Lymphocytes
Reduction effects on the number of blood lymphocytes by test compounds were confirmed using Male Sprague-Dawley rats (Japan SLC, 7-weeks-old in use). Administration solutions for test compounds were prepared on hot-plate at 50° C. After test compounds were dissolved by DMSO (dimethyl sulfoxide, Wako Pure Chemicals) of 1/10 volume of the total volume, WellSolve (Celeste) of 1/10 volume of the total volume was added to this solution. Further, distilled water (Otsuka Pharmaceutical Factory) of 8/10 volume of the total volume was added to this solution, and the administration solutions for test compounds were prepared. A solution, prepared in the same volume ratios of DMSO. WellSolve and distilled water as the administration solution for test compounds, was used as a solvent (Vehicle). Vehicle or test compound was administered orally to rats at 1 mL/body. After 6, 24 and 48 hours from administration of vehicle or test compounds, rats were held on the board at supine position under inhalation anesthesia with isoflurane (Abbott Japan). Blood samples (200 to 250 μL) were collected from the cervical vein of this rat using 1 mL syringes with needles of 25G. The collected blood samples were transferred to a microtube treated with EDTA-2K (Japan Becton Dickinson), and stored at room temperature after gently mixing with inversion. The number of lymphocytes was measured by ADVIA (registered mark) (Bayer), which is a multi-parameter automated blood cell counter using this blood samples. The average number of lymphocytes in vehicle-treated group (vehicle group) was defined as 100%, and the average number of lymphocytes in each test compound-treated group was calculated as % of vehicle. As Comparative Example 2, 1-{5-[1-(4-chloro-3-methyl-phenyl)-propylamino]-2-methyl-benzyl}-azetidine-3-carboxylic acid (patent literature 1, Example 4) was evaluated as well.

Chain of human S1P1 (EDG-1) (P21453 whole entry): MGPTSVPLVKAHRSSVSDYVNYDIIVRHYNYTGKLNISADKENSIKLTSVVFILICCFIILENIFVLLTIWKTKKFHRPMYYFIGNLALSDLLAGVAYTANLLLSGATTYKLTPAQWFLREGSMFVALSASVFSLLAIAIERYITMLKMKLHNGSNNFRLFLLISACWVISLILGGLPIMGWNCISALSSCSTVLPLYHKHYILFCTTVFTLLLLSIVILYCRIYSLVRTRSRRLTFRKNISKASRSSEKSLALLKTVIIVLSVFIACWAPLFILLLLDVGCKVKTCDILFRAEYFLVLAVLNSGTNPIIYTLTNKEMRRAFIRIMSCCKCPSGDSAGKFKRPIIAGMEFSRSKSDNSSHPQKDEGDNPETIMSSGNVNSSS

IC50 (human S1P1 (EDG-1)) [nM] | SMILES | Number of lymphocytes (% of Vehicle) After 6 hours (blood lymphocytes; 10 mg/kg) | Number of lymphocytes (% of Vehicle) After 24 hours (blood lymphocytes; 10 mg/kg) | Number of lymphocytes (% of Vehicle) After 48 hours (blood lymphocytes; 10 mg/kg) | Number of lymphocytes (% of Vehicle) After 6 hours (blood lymphocytes; 1 mg/kg) | Number of lymphocytes (% of Vehicle) After 24 hours (blood lymphocytes; 1 mg/kg) | Number of lymphocytes (% of Vehicle) After 48 hours (blood lymphocytes; 1 mg/kg)
1 | CCN(c1ccc(Cl)c(C)c1)C(C)c1ccc(C)c(CN2CC(C(=O)O)C2)c1 (centres unmarked) [Compound 2-6, 1-(5-{1-[(4-Chloro-3-methylphenyl)(ethyl)amino]ethyl}-2-methylbenzyl)azetidine-3-carboxylic acid] | 9.9 % of Vehicle | 14.1 % of Vehicle | 65.7 % of Vehicle | – | – | –
1.2 | CCN(c1ccc(Cl)c(C(F)(F)F)c1)C(C)c1ccc(C)c(CN2CC(C(=O)O)C2)c1 (centres unmarked) [Compound 2-7, 1-(5-{1-[(4-Chloro-3-trifluoromethylphenyl)(ethyl)amino]ethyl}-2-methylbenzyl)-azetidine-3-carboxylic acid] | 10.9 % of Vehicle | 10.6 % of Vehicle | 13.2 % of Vehicle | 15.0 % of Vehicle | 11.1 % of Vehicle | 66.8 % of Vehicle
